Laboratory results published in ChEMBL document CHEMBL4376853, “Synthesis and structure-activity relationship studies of α-naphthoflavone derivatives as CYP1B1 inhibitors” (Eur J Med Chem, 2020).

molecular target: T1, Cytochrome P450 1B1 (Homo sapiens, UniProt Q16678); test: Potency index, ratio of IC50 for ANF to IC50 for test compound for inhibition of human recombinant CYP1B1 using 7-ethoxyresorufin as substrate in presence of glucose-6-phosphate, glucose-6-phosphate dehydrogenase and NADPH-generating system incubated for 35 mins by fluorometry; conditions: read-out: Ratio IC50
T1 sequence (Q16678 whole entry): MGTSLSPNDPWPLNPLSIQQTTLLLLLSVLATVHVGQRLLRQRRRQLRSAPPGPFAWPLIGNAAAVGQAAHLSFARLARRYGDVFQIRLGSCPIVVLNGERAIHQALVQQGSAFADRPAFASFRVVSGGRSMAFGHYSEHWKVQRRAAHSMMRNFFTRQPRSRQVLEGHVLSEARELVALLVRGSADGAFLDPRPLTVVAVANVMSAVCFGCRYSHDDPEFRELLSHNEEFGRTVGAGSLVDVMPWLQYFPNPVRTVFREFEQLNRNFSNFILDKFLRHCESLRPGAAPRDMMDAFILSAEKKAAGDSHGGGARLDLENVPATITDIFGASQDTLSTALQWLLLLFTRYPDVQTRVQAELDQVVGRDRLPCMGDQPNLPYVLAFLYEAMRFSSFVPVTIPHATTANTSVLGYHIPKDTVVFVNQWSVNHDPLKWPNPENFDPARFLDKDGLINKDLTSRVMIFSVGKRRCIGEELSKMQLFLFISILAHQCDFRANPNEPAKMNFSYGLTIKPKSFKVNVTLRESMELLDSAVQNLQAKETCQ

Compound | selectivity ratio at 35 min
O=c1cc(-c2cccc(N3CCOCC3)c2)oc2c1ccc1ccccc12 | 3
CN1CCN(c2cc(Cl)cc(-c3cc(=O)c4ccc5ccccc5c4o3)c2)CC1 | 0.12

molecular target: T2, Cytochrome P450 1A2 (Homo sapiens, UniProt P05177); test: Inhibition of human recombinant CYP1A2 using 7-ethoxyresorufin as substrate in presence of glucose-6-phosphate, glucose-6-phosphate dehydrogenase and NADPH-generating system incubated for 50 mins by fluorometry; type: ADME; conditions: not given
T2 sequence (P05177 whole entry): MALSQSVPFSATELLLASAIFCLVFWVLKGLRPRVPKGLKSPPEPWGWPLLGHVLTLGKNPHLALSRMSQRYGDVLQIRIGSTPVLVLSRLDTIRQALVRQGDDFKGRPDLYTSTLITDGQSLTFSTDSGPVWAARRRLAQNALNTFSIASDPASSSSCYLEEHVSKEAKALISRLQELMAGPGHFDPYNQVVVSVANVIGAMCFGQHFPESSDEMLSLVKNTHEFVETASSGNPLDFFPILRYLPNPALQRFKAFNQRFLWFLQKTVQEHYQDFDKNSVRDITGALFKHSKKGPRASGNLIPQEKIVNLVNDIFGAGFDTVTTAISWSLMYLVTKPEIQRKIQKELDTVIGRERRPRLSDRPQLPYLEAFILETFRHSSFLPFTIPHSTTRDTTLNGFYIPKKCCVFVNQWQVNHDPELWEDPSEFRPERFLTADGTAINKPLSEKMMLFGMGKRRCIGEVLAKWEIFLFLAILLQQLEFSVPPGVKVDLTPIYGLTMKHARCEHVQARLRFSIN

Compound | IC50
O=c1cc(-c2cccc(N3CCOCC3)c2)oc2c1ccc1ccccc12 | 318 nM
O=c1cc(-c2ccc(Cl)cc2)sc2c1ccc1ccccc12 | 212 nM
Fc1ccccc1-c1cc(=S)c2ccc3ccccc3c2o1 | 51.8 nM
O=C1C=C(c2cccc(Cl)c2)S(=O)(=O)c2c1ccc1ccccc21 | 699 nM
O=c1cc(-c2ccccc2F)sc2c1ccc1ccccc12 | 582 nM
O=c1cc(-c2ccccc2)sc2c1ccc1ccccc12 | > 1000 nM
O=c1cc(-c2ccncc2)oc2c1ccc1ccccc12 | 36.4 nM
COc1cc(-c2cc(=S)c3ccc4ccccc4c3o2)cc(OC)c1OC | > 1000 nM
O=c1cc(-c2ccc(F)cc2)oc2c1ccc1ccccc12 | 12.1 nM
COc1cc(Cl)cc(-c2cc(=O)c3ccc4ccccc4c3o2)c1 | > 1000 nM
COc1cc(-c2cc(=O)c3ccc4ccccc4c3o2)cc(OC)c1OC | > 1000 nM
O=C1C=C(c2ccccc2)S(=O)(=O)c2c1ccc1ccccc21 | 170 nM
O=c1cc(-c2ccccc2Cl)sc2c1ccc1ccccc12 | > 1000 nM
COc1ccc(-c2cc(=O)c3ccc4ccccc4c3o2)cc1 | 98.2 nM
O/N=c1\cc(-c2ccccc2)oc2c1ccc1ccccc12 | 74.6 nM
CN(C)c1cccc(-c2cc(=O)c3ccc4ccccc4c3o2)c1 | 183 nM
O=c1cc(-c2cccc(O)c2)oc2c1ccc1ccccc12 | 91.5 nM
CN1CCN(c2cc(Cl)cc(-c3cc(=O)c4ccc5ccccc5c4o3)c2)CC1 | > 1000 nM

molecular target: T3, Cytochrome P450 1A1 (Homo sapiens, UniProt P04798); test: Inhibition of human recombinant CYP1A1 using 7-ethoxyresorufin as substrate in presence of glucose-6-phosphate, glucose-6-phosphate dehydrogenase and NADPH-generating system incubated for 15 mins by fluorometry; type: ADME; conditions: not given
T3 sequence (P04798 whole entry): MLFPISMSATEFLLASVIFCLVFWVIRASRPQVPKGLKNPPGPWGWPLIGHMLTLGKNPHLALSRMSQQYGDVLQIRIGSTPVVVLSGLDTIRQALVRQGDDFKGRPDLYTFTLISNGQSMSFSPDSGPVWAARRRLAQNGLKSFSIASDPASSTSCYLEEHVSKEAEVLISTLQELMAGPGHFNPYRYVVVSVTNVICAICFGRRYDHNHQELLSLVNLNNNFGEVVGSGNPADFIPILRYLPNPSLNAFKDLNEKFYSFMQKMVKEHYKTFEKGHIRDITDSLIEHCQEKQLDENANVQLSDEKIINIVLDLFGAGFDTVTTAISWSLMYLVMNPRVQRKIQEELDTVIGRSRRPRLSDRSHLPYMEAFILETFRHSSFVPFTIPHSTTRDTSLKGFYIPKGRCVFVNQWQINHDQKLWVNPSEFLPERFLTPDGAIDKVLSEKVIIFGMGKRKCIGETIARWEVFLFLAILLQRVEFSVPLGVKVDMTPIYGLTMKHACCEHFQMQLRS

Compound | IC50
O=c1cc(-c2cccc(N3CCOCC3)c2)oc2c1ccc1ccccc12 | 30.9 nM
O=c1cc(-c2ccc(Cl)cc2)sc2c1ccc1ccccc12 | 9 nM
Fc1ccccc1-c1cc(=S)c2ccc3ccccc3c2o1 | 31.9 nM
O=C1C=C(c2cccc(Cl)c2)S(=O)(=O)c2c1ccc1ccccc21 | > 1000 nM
O=c1cc(-c2ccccc2F)sc2c1ccc1ccccc12 | 84.6 nM
O=c1cc(-c2ccccc2)sc2c1ccc1ccccc12 | 32.6 nM
O=c1cc(-c2ccncc2)oc2c1ccc1ccccc12 | 18.7 nM
COc1cc(-c2cc(=S)c3ccc4ccccc4c3o2)cc(OC)c1OC | 28.2 nM
O=c1cc(-c2ccc(F)cc2)oc2c1ccc1ccccc12 | 6.7 nM
COc1cc(Cl)cc(-c2cc(=O)c3ccc4ccccc4c3o2)c1 | 164 nM
COc1cc(-c2cc(=O)c3ccc4ccccc4c3o2)cc(OC)c1OC | 3 nM
O=C1C=C(c2ccccc2)S(=O)(=O)c2c1ccc1ccccc21 | 129 nM
O=c1cc(-c2ccccc2Cl)sc2c1ccc1ccccc12 | 45.8 nM
COc1ccc(-c2cc(=O)c3ccc4ccccc4c3o2)cc1 | 30.9 nM
O/N=c1\cc(-c2ccccc2)oc2c1ccc1ccccc12 | 32.1 nM
CN(C)c1cccc(-c2cc(=O)c3ccc4ccccc4c3o2)c1 | 9.6 nM
O=c1cc(-c2cccc(O)c2)oc2c1ccc1ccccc12 | 53.1 nM
CN1CCN(c2cc(Cl)cc(-c3cc(=O)c4ccc5ccccc5c4o3)c2)CC1 | 37.9 nM

molecular target: T1, Cytochrome P450 1B1; test: Inhibition of human recombinant CYP1B1 using 7-ethoxyresorufin as substrate in presence of glucose-6-phosphate, glucose-6-phosphate dehydrogenase and NADPH-generating system incubated for 35 mins by fluorometry; conditions: not given

Compound | IC50
O=c1cc(-c2cccc(N3CCOCC3)c2)oc2c1ccc1ccccc12 | 2 nM
O=c1cc(-c2ccc(Cl)cc2)sc2c1ccc1ccccc12 | 51.9 nM
Fc1ccccc1-c1cc(=S)c2ccc3ccccc3c2o1 | 10.6 nM
O=C1C=C(c2cccc(Cl)c2)S(=O)(=O)c2c1ccc1ccccc21 | 250 nM
O=c1cc(-c2ccccc2F)sc2c1ccc1ccccc12 | 104 nM
O=c1cc(-c2ccccc2)sc2c1ccc1ccccc12 | 57 nM
O=c1cc(-c2ccncc2)oc2c1ccc1ccccc12 | 9.3 nM
COc1cc(-c2cc(=S)c3ccc4ccccc4c3o2)cc(OC)c1OC | 18.8 nM
O=c1cc(-c2ccc(F)cc2)oc2c1ccc1ccccc12 | 2.7 nM
COc1cc(Cl)cc(-c2cc(=O)c3ccc4ccccc4c3o2)c1 | 3.2 nM
COc1cc(-c2cc(=O)c3ccc4ccccc4c3o2)cc(OC)c1OC | 5.1 nM
O=C1C=C(c2ccccc2)S(=O)(=O)c2c1ccc1ccccc21 | 223 nM
O=c1cc(-c2ccccc2Cl)sc2c1ccc1ccccc12 | 89.7 nM
COc1ccc(-c2cc(=O)c3ccc4ccccc4c3o2)cc1 | 7.3 nM
O/N=c1\cc(-c2ccccc2)oc2c1ccc1ccccc12 | 3.2 nM
CN(C)c1cccc(-c2cc(=O)c3ccc4ccccc4c3o2)c1 | 4.1 nM
O=c1cc(-c2cccc(O)c2)oc2c1ccc1ccccc12 | 14.8 nM
CN1CCN(c2cc(Cl)cc(-c3cc(=O)c4ccc5ccccc5c4o3)c2)CC1 | 47.7 nM

species on record: Homo sapiens; test: Selectivity index, ratio of IC50 for human recombinant CYP1A2 to IC50 for human recombinant CYP1B1 using 7-ethoxyresorufin as substrate in presence of glucose-6-phosphate, glucose-6-phosphate dehydrogenase and NADPH-generating system by fluorometry; conditions: not given

Compound | Ratio IC50
O=c1cc(-c2cccc(N3CCOCC3)c2)oc2c1ccc1ccccc12 | 159
O=c1cc(-c2ccc(Cl)cc2)sc2c1ccc1ccccc12 | 4
Fc1ccccc1-c1cc(=S)c2ccc3ccccc3c2o1 | 4.9
O=C1C=C(c2cccc(Cl)c2)S(=O)(=O)c2c1ccc1ccccc21 | 2.8
O=c1cc(-c2ccccc2F)sc2c1ccc1ccccc12 | 5.6
O=c1cc(-c2ccccc2)sc2c1ccc1ccccc12 | > 17.5
O=c1cc(-c2ccncc2)oc2c1ccc1ccccc12 | 3.9
COc1cc(-c2cc(=S)c3ccc4ccccc4c3o2)cc(OC)c1OC | > 53.2
O=c1cc(-c2ccc(F)cc2)oc2c1ccc1ccccc12 | 4.5
COc1cc(-c2cc(=O)c3ccc4ccccc4c3o2)cc(OC)c1OC | > 196
O=C1C=C(c2ccccc2)S(=O)(=O)c2c1ccc1ccccc21 | 0.8
O=c1cc(-c2ccccc2Cl)sc2c1ccc1ccccc12 | > 11.1
COc1ccc(-c2cc(=O)c3ccc4ccccc4c3o2)cc1 | 13.5
O/N=c1\cc(-c2ccccc2)oc2c1ccc1ccccc12 | 23.3
CN(C)c1cccc(-c2cc(=O)c3ccc4ccccc4c3o2)c1 | 44.7
O=c1cc(-c2cccc(O)c2)oc2c1ccc1ccccc12 | 6.2

species on record: Homo sapiens; test: Selectivity index, ratio of IC50 for human recombinant CYP1A1 to IC50 for human recombinant CYP1B1 using 7-ethoxyresorufin as substrate in presence of glucose-6-phosphate, glucose-6-phosphate dehydrogenase and NADPH-generating system by fluorometry; conditions: not given

Compound | Ratio IC50
O=c1cc(-c2cccc(N3CCOCC3)c2)oc2c1ccc1ccccc12 | 15.5
O=c1cc(-c2ccc(Cl)cc2)sc2c1ccc1ccccc12 | 0.2
Fc1ccccc1-c1cc(=S)c2ccc3ccccc3c2o1 | 3
O=C1C=C(c2cccc(Cl)c2)S(=O)(=O)c2c1ccc1ccccc21 | > 4
O=c1cc(-c2ccccc2F)sc2c1ccc1ccccc12 | 0.8
O=c1cc(-c2ccccc2)sc2c1ccc1ccccc12 | 0.6
O=c1cc(-c2ccncc2)oc2c1ccc1ccccc12 | 2
COc1cc(-c2cc(=S)c3ccc4ccccc4c3o2)cc(OC)c1OC | 1.5
O=c1cc(-c2ccc(F)cc2)oc2c1ccc1ccccc12 | 2.5
COc1cc(Cl)cc(-c2cc(=O)c3ccc4ccccc4c3o2)c1 | 51.2
COc1cc(-c2cc(=O)c3ccc4ccccc4c3o2)cc(OC)c1OC | 0.6
O=C1C=C(c2ccccc2)S(=O)(=O)c2c1ccc1ccccc21 | 0.6
O=c1cc(-c2ccccc2Cl)sc2c1ccc1ccccc12 | 0.5
COc1ccc(-c2cc(=O)c3ccc4ccccc4c3o2)cc1 | 4.2
O/N=c1\cc(-c2ccccc2)oc2c1ccc1ccccc12 | 10
CN(C)c1cccc(-c2cc(=O)c3ccc4ccccc4c3o2)c1 | 2.3
O=c1cc(-c2cccc(O)c2)oc2c1ccc1ccccc12 | 3.6
CN1CCN(c2cc(Cl)cc(-c3cc(=O)c4ccc5ccccc5c4o3)c2)CC1 | 0.8
